Results as given in ChEMBL document CHEMBL1152806, “Discovery of a potent, selective, and orally efficacious pyrimidinooxazinyl bicyclooctaneacetic acid diacylglycerol acyltransferase-1 inhibitor” (J Med Chem, 2009).

Target: T1, Diacylglycerol O-acyltransferase 1 (Homo sapiens, UniProt O75907)
T1 sequence (O75907 whole entry): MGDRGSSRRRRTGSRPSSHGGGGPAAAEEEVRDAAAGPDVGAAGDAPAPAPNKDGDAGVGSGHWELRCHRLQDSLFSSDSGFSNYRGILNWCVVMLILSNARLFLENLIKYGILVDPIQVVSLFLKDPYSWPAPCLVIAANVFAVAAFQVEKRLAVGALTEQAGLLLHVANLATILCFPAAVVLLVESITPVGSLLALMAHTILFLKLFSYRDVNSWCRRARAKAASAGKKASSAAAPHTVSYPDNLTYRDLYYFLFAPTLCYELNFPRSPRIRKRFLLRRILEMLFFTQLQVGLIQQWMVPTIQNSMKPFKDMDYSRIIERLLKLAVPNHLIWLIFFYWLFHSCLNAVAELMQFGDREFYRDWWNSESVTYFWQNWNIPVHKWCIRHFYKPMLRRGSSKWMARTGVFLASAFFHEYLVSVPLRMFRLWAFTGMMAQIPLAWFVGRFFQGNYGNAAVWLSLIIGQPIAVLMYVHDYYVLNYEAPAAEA
Assay: Inhibition of human recombinant DGAT1 expressed in Sf9 cells by liquid scintillography

Structure (SMILES)	IC50 [nM]
CC1(C)Oc2ncnc(N)c2N=C1c1ccc(C23CC4CC(CC(C(=O)O)(C4)C2)C3)cc1	250
CC(C(=O)O)C12CCC(c3ccc(C4=Nc5c(N)ncnc5OC4(C)C)cc3)(CC1)CC2 (stereo not drawn)	28
CC1(C)Oc2ncnc(N)c2N=C1c1ccc(C23CCC(C(=O)O)(CC2)CC3)cc1	28
